Source: ChEMBL document CHEMBL4507275, “Data for DCP probe BI-2545” (2021)

Tests used:
[1] = molecular target: Delta-type opioid receptor (Homo sapiens) (UniProt P41143); conditions: Compound concentration 10.0 uM
[2] = molecular target: Cyclin-dependent kinase 16 (Homo sapiens) (UniProt Q00536); conditions: Compound concentration 1000.0 nM
[3] = molecular target: Mitogen-activated protein kinase kinase kinase 6 (Homo sapiens) (UniProt O95382); conditions: Compound concentration 1000.0 nM
[4] = molecular target: Rhodopsin kinase GRK1 (Homo sapiens) (UniProt Q15835); conditions: Compound concentration 1000.0 nM
[5] = test system: Receptor-type tyrosine-protein kinase FLT3 (Homo sapiens), P36888 [K663Q]; conditions: Compound concentration 1000.0 nM
[6] = molecular target: Mitogen-activated protein kinase 6 (Homo sapiens) (UniProt Q16659); conditions: Compound concentration 1000.0 nM
Chain of Mitogen-activated protein kinase 6 (Homo sapiens) (Q16659 whole entry): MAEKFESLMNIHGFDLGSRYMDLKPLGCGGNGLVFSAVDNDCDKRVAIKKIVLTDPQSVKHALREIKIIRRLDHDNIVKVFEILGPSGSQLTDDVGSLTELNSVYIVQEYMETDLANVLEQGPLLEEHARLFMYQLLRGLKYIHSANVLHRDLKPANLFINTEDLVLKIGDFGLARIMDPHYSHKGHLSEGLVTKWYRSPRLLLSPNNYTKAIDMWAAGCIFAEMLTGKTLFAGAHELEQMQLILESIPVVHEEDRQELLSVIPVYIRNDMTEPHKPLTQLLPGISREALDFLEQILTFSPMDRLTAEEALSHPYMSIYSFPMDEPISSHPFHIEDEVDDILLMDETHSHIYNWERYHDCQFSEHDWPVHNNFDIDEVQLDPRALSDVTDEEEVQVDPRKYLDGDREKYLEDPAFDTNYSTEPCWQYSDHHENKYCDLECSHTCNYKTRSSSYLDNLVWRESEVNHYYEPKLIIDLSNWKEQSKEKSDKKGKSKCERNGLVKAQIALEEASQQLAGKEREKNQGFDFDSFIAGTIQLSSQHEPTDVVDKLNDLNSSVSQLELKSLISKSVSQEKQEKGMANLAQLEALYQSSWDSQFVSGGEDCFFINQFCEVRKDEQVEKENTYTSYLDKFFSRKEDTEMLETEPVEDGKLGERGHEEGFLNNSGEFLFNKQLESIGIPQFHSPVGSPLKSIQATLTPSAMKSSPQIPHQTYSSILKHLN

[7] = molecular target: 5'-AMP-activated protein kinase catalytic subunit alpha-2 (Homo sapiens) (UniProt P54646); conditions: Compound concentration 1000.0 nM
[8] = molecular target: Misshapen-like kinase 1 (Homo sapiens) (UniProt Q8N4C8); conditions: Compound concentration 1000.0 nM
[9] = molecular target: Tyrosine-protein kinase Fgr (Homo sapiens) (UniProt P09769); conditions: Compound concentration 1000.0 nM
[10] = molecular target: Receptor-type tyrosine-protein kinase FLT3 (Homo sapiens) (UniProt P36888); conditions: Compound concentration 1000.0 nM
[11] = molecular target: cGMP-dependent protein kinase 1 (Homo sapiens) (UniProt Q13976); conditions: Compound concentration 1000.0 nM
Chain of cGMP-dependent protein kinase 1 (Homo sapiens) (Q13976 whole entry): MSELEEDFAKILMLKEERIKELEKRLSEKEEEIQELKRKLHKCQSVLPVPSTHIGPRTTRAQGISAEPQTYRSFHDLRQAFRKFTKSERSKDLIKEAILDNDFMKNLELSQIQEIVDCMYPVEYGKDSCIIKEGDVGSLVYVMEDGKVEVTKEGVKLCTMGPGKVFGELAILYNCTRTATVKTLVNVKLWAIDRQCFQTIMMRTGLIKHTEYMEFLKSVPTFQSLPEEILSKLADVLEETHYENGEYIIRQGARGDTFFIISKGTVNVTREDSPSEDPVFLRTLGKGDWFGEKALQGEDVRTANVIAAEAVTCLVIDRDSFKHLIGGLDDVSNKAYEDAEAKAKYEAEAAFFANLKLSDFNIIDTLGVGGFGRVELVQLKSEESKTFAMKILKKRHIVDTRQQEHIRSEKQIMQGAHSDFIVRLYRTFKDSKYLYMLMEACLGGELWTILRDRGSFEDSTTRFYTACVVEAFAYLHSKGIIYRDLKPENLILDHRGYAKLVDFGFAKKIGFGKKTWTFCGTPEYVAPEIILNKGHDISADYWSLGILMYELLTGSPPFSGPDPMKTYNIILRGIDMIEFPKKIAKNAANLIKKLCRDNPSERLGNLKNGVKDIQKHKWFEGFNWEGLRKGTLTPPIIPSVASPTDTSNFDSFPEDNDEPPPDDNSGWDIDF

[12] = molecular target: Dual serine/threonine and tyrosine protein kinase (Homo sapiens) (UniProt Q6XUX3); conditions: Compound concentration 1000.0 nM
[13] = molecular target: Serine/threonine-protein kinase Nek10 (Homo sapiens) (UniProt Q6ZWH5); conditions: Compound concentration 1000.0 nM
[14] = molecular target: Serine/threonine-protein kinase NLK (Homo sapiens) (UniProt Q9UBE8); conditions: Compound concentration 1000.0 nM
Chain of Serine/threonine-protein kinase NLK (Homo sapiens) (Q9UBE8 whole entry): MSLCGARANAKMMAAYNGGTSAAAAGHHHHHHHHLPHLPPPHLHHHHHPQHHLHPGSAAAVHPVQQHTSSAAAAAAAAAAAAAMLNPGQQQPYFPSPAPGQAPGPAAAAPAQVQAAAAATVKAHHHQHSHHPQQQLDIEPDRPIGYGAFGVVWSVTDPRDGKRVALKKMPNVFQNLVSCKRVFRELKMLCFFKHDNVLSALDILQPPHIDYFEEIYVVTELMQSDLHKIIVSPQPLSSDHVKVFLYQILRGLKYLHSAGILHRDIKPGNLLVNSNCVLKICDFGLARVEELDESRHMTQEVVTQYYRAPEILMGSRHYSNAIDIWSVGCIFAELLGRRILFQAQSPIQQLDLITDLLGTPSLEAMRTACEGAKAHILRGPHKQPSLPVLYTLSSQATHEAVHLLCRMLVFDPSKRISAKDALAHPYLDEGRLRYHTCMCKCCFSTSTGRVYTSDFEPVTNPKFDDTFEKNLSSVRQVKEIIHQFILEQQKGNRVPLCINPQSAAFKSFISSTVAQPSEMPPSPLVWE

[15] = molecular target: Cyclin-dependent kinase-like 5 (Homo sapiens) (UniProt O76039); conditions: Compound concentration 1000.0 nM
[16] = molecular target: Mitogen-activated protein kinase kinase kinase 12 (Homo sapiens) (UniProt Q12852); conditions: Compound concentration 1000.0 nM
[17] = molecular target: Cyclin-dependent kinase 9 (Homo sapiens) (UniProt P50750); conditions: Compound concentration 1000.0 nM
[18] = molecular target: Receptor-interacting serine/threonine-protein kinase 2 (Homo sapiens) (UniProt O43353); conditions: Compound concentration 1000.0 nM
[19] = molecular target: Serine/threonine-protein kinase SIK3 (Homo sapiens) (UniProt Q9Y2K2); conditions: Compound concentration 1000.0 nM
[20] = molecular target: Serine/threonine-protein kinase SIK1 (Homo sapiens) (UniProt P57059); conditions: Compound concentration 1000.0 nM
[21] = molecular target: Leukocyte tyrosine kinase receptor (Homo sapiens) (UniProt P29376); conditions: Compound concentration 1000.0 nM
[22] = molecular target: Phosphatidylinositol 3-kinase C2 domain-containing subunit gamma (Homo sapiens) (UniProt O75747); conditions: Compound concentration 1000.0 nM
[23] = molecular target: Serine/threonine-protein kinase PLK4 (Homo sapiens) (UniProt O00444); conditions: Compound concentration 1000.0 nM
[24] = molecular target: Epithelial discoidin domain-containing receptor 1 (Homo sapiens) (UniProt Q08345); conditions: Compound concentration 1000.0 nM
[25] = molecular target: Tyrosine-protein kinase Tec (Homo sapiens) (UniProt P42680); conditions: Compound concentration 1000.0 nM
[26] = molecular target: Dual specificity protein kinase TTK (Homo sapiens) (UniProt P33981); conditions: Compound concentration 1000.0 nM
[27] = test system: Epidermal growth factor receptor (Homo sapiens), P00533 [L861Q]; conditions: Compound concentration 1000.0 nM
[28] = molecular target: Sigma intracellular receptor 2 (Homo sapiens) (UniProt Q5BJF2); conditions: Compound concentration 10.0 uM
[29] = test system: Mast/stem cell growth factor receptor Kit (Homo sapiens), P10721 [V559D,V654A]; conditions: Compound concentration 1000.0 nM
[30] = molecular target: Myosin light chain kinase family member 4 (Homo sapiens) (UniProt Q86YV6); conditions: Compound concentration 1000.0 nM
[31] = molecular target: D(4) dopamine receptor (Homo sapiens) (UniProt P21917); conditions: Compound concentration 10.0 uM
[32] = molecular target: BMP-2-inducible protein kinase (Homo sapiens) (UniProt Q9NSY1); conditions: Compound concentration 1000.0 nM
Chain of BMP-2-inducible protein kinase (Homo sapiens) (Q9NSY1 whole entry, looked up): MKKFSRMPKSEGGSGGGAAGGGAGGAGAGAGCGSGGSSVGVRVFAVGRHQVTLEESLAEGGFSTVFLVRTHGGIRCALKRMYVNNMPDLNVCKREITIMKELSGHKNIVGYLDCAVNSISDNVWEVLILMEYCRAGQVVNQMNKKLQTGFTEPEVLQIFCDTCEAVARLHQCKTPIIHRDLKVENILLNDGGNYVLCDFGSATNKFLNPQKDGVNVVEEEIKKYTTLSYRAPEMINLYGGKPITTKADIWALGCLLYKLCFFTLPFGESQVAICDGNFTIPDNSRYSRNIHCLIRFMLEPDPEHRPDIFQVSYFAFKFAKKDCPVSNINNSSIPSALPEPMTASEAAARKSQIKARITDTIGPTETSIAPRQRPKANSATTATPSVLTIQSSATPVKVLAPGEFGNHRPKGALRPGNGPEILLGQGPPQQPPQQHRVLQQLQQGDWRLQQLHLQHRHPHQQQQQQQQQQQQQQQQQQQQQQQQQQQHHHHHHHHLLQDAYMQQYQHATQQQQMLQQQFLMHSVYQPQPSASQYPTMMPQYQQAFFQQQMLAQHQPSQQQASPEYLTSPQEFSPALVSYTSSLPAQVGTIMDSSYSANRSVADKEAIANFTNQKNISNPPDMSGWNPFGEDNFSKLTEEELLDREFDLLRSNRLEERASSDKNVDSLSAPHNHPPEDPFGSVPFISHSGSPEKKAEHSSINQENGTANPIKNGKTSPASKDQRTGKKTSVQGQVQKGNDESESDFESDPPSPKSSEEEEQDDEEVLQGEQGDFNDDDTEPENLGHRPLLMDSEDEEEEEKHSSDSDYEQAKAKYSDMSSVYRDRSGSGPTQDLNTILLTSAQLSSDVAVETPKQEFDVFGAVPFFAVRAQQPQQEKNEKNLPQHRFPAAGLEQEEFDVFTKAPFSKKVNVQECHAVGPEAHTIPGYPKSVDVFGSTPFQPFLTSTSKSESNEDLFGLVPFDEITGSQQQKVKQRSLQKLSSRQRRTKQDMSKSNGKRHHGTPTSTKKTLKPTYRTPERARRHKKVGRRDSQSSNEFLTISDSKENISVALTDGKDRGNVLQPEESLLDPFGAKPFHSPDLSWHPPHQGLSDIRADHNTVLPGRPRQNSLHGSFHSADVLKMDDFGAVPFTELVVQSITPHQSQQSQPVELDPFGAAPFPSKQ

[33] = molecular target: TGF-beta receptor type-1 (Homo sapiens) (UniProt P36897); conditions: Compound concentration 1000.0 nM
[34] = test system: Tyrosine-protein kinase ABL1 (Homo sapiens), P00519 [H396P]; conditions: Compound concentration 1000.0 nM
[35] = test system: Tyrosine-protein kinase ABL1 (Homo sapiens), P00519 [H396P]; conditions: Compound concentration 1000.0 nM; remark: listed apart in the source
[36] = molecular target: Cyclin-dependent kinase 7 (Homo sapiens) (UniProt P50613); conditions: Compound concentration 1000.0 nM
[37] = molecular target: Ribosomal protein S6 kinase alpha-2 (Homo sapiens) (UniProt Q15349); conditions: Compound concentration 1000.0 nM
[38] = molecular target: Phosphatidylinositol 5-phosphate 4-kinase type-2 beta (Homo sapiens) (UniProt P78356); conditions: Compound concentration 1000.0 nM
Chain of Phosphatidylinositol 5-phosphate 4-kinase type-2 beta (Homo sapiens) (P78356 whole entry): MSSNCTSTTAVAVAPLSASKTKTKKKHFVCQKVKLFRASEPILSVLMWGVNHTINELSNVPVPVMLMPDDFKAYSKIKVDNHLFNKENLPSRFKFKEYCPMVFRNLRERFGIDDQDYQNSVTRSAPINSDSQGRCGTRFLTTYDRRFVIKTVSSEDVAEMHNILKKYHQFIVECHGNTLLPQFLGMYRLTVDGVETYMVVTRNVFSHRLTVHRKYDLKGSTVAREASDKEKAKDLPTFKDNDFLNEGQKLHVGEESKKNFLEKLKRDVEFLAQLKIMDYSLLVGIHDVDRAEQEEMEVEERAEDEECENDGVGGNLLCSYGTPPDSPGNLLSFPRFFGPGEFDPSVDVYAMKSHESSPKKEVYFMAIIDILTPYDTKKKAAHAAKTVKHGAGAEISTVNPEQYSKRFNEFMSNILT

[39] = molecular target: Mitogen-activated protein kinase kinase kinase 15 (Homo sapiens) (UniProt Q6ZN16); conditions: Compound concentration 1000.0 nM
[40] = molecular target: Ribosomal protein S6 kinase alpha-1 (Homo sapiens) (UniProt Q15418); conditions: Compound concentration 1000.0 nM
[41] = molecular target: Calcium/calmodulin-dependent protein kinase type 1G (Homo sapiens) (UniProt Q96NX5); conditions: Compound concentration 1000.0 nM
[42] = molecular target: Serine/threonine-protein kinase LATS1 (Homo sapiens) (UniProt O95835); conditions: Compound concentration 1000.0 nM
[43] = molecular target: Calcium/calmodulin-dependent protein kinase type II subunit alpha (Homo sapiens) (UniProt Q9UQM7); conditions: Compound concentration 1000.0 nM
[44] = molecular target: ALK tyrosine kinase receptor (Homo sapiens) (UniProt Q9UM73); conditions: Compound concentration 1000.0 nM
[45] = molecular target: Proto-oncogene tyrosine-protein kinase Src (Homo sapiens) (UniProt P12931); conditions: Compound concentration 1000.0 nM
Chain of Proto-oncogene tyrosine-protein kinase Src (Homo sapiens) (P12931 2-536 limits assumed): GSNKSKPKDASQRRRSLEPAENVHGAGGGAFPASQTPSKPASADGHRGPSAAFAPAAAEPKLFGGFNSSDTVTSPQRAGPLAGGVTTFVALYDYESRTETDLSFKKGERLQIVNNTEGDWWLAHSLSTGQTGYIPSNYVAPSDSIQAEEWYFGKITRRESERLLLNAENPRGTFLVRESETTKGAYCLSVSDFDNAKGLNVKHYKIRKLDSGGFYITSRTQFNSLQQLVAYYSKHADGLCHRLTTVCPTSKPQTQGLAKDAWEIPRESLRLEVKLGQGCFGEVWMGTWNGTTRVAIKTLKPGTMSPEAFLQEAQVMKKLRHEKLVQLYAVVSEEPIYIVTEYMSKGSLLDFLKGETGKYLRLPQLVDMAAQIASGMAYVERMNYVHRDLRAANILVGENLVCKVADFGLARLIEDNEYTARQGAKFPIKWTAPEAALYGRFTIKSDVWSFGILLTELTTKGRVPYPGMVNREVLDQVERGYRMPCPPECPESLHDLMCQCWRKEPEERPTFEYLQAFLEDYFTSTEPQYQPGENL

Chain of Cyclin-dependent kinase 16 (Homo sapiens) (Q00536 whole entry): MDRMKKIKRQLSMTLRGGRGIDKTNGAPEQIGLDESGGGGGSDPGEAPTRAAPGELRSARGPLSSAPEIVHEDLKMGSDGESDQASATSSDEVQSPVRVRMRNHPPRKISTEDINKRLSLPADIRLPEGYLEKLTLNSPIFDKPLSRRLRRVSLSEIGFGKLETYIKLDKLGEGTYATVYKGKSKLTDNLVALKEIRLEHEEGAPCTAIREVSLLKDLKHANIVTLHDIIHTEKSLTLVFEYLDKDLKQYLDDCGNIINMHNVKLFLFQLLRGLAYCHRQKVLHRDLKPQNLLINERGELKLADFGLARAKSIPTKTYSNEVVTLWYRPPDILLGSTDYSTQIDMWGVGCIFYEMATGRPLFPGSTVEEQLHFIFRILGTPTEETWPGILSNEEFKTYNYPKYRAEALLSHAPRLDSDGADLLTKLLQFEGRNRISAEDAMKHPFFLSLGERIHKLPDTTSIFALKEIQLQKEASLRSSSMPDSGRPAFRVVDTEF
Chain of Delta-type opioid receptor (Homo sapiens) (P41143 whole entry): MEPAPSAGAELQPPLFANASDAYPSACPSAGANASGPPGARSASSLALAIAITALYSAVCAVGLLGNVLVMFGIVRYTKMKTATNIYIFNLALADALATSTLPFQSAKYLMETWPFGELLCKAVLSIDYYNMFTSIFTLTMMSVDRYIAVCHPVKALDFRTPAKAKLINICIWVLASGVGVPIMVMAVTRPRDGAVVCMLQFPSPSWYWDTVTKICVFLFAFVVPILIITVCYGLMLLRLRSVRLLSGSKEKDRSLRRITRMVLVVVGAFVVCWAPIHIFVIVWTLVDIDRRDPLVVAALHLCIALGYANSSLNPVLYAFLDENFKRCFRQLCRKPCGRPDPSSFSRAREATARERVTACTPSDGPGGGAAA

O=C(NC[C@@H]1[C@H]2CN(C(=O)OCc3cc(C(F)(F)F)cc(C(F)(F)F)c3)C[C@@H]12)c1ccc2[nH]nnc2c1 [BI 2545]
inhibition [1]: 19.6%
residual activity [2]: 100%
residual activity [3]: 81%
residual activity [4]: 90%
residual activity [5]: 98%
residual activity [6]: 88%
residual activity [7]: 100%
residual activity [8]: 72%
residual activity [9]: 88%
residual activity [10]: 91%
residual activity [11]: 83%
residual activity [12]: 82%
residual activity [13]: 73%
residual activity [14]: 100%
residual activity [15]: 100%
residual activity [16]: 100%
residual activity [17]: 91%
residual activity [18]: 64%
residual activity [19]: 79%
residual activity [20]: 100%
residual activity [21]: 98%
residual activity [22]: 100%
residual activity [23]: 82%
residual activity [24]: 83%
residual activity [25]: 100%
residual activity [26]: 91%
residual activity [27]: 100%
inhibition [28]: 44.9%
residual activity [29]: 99%
residual activity [30]: 100%
inhibition [31]: 6.75%
residual activity [32]: 85%
residual activity [33]: 97%
residual activity [34]: 91%
residual activity [35]: 84%
residual activity [36]: 92%
residual activity [37]: 84%
residual activity [38]: 100%
residual activity [39]: 53%
residual activity [40]: 94%
residual activity [41]: 100%
residual activity [42]: 96%
residual activity [43]: 91%
residual activity [44]: 79%
residual activity [45]: 100%

Cc1nccc(COC(=O)N2C[C@@H]3[C@@H](CNC(=O)c4ccc5[nH]nnc5c4)[C@@H]3C2)n1 [BI 3017]
inhibition [1]: -1.41%
residual activity [2]: 78%
residual activity [3]: 78%
residual activity [4]: 100%
residual activity [5]: 100%
residual activity [6]: 93%
residual activity [7]: 97%
residual activity [8]: 100%
residual activity [9]: 100%
residual activity [10]: 93%
residual activity [11]: 100%
residual activity [12]: 69%
residual activity [13]: 92%
residual activity [14]: 41%
residual activity [15]: 87%
residual activity [16]: 72%
residual activity [17]: 100%
residual activity [18]: 100%
residual activity [19]: 100%
residual activity [20]: 98%
residual activity [21]: 93%
residual activity [22]: 99%
residual activity [23]: 83%
residual activity [24]: 100%
residual activity [25]: 94%
residual activity [26]: 89%
residual activity [27]: 100%
inhibition [28]: -2.9%
residual activity [29]: 41%
residual activity [30]: 89%
inhibition [31]: -0.15%
residual activity [32]: 100%
residual activity [33]: 100%
residual activity [34]: 85%
residual activity [35]: 93%
residual activity [36]: 78%
residual activity [37]: 91%
residual activity [38]: 100%
residual activity [39]: 95%
residual activity [40]: 98%
residual activity [41]: 100%
residual activity [42]: 89%
residual activity [43]: 65%
residual activity [44]: 87%
residual activity [45]: 100%
